# Test: Granulometry: particle size by laser diffraction (HELOS SYMPATEC granulometer)
# Format: physicochemical
# Conditions: after sieving on a 500 μm grid
# Experimental: The size of the particles is determined by laser diffraction using a HELOS SYMPATEC® model granulometer.
compound,measurement,setting,value
"CC[C@H]1OC(=O)[C@H](C)C(=O)[C@H](C)[C@@H](O[C@@H]2O[C@H](C)C[C@H](N(C)C)[C@H]2O)[C@](C)(O)C[C@@H](C)C(=O)[C@H](C)[C@H]2N(CCCCn3cnc(-c4cccnc4)c3)C(=O)O[C@]12C [spherical agglomerates of telithromycin, 11,12-dideoxy-3-de((2,6-dideoxy-3-C-methyl-3-O-methyl-alpha-L-ribohexopyranosyl)oxy)-6-O-methyl-3-oxo-12,11-(oxycarbonyl((4-(4-(3-pyridinyl)-1H-imidazol-1-yl)butyl)imino))-erythromycin]",diameter of 10% of the particles,10% of the particles below this diameter,< 77 microns
same,diameter of 50% of the particles,50% of the particles below this diameter,< 107 microns
same,diameter of 90% of the particles,90% of the particles below this diameter,< 166 microns
